Test results taken from ChEMBL document CHEMBL6083181, “Advances in SHP2 tunnel allosteric inhibitors and bifunctional molecules” (Eur J Med Chem, 2024).
pIC50: −log10 of the molar value.

Key:
[1] = target: T1, Tyrosine-protein phosphatase non-receptor type 11 (Homo sapiens, UniProt Q06124); experiment: Inhibition of human SHP2
T1 sequence (Q06124 whole entry): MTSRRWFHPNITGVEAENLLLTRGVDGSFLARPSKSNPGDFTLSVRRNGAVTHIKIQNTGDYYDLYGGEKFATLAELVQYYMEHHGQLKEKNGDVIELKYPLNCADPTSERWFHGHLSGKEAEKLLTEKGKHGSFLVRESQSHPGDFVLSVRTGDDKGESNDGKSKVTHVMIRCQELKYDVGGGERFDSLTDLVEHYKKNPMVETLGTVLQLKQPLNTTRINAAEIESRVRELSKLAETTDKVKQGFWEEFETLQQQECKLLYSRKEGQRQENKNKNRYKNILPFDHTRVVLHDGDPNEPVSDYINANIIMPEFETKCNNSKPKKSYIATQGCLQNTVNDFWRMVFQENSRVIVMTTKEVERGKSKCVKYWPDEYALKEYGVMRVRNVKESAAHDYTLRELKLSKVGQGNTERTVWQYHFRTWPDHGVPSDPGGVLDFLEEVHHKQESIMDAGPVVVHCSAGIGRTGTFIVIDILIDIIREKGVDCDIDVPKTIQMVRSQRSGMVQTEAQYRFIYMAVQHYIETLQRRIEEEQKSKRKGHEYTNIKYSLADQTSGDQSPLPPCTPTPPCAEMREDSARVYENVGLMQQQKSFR

[2] = Oral bioavailability in Sprague-Dawley rat at 10 mg/kg by LC-MS analysis; format: ADME, organism-based; conditions: in vivo
KYSE-520 cell line = experiment: Antiproliferative activity against human KYSE520 cells assessed as reduction in cell viability by WST-8 assay
[3] = Oral bioavailability in human; format: ADME, organism-based; conditions: in vivo

Compound `C[C@H]1OCC2(CCN(c3cnc(Sc4ccnc(NC(=O)CCCCCCNC(=O)c5cccnc5)c4Cl)c(N)n3)CC2)[C@H]1N` has a pIC50 [1] of over 8.00.
In the case of `CC1(N)CCN(c2cnc3c(Sc4ccncc4Cl)n[nH]c3n2)CC1`, the bioavailability [2] was 42.5% and the pIC50 (KYSE-520 cell line) was 5.24.
For `CC1(N)CCN(c2cnc(-c3cccc(Cl)c3Cl)c(N)n2)CC1`, the bioavailability [3] was 46%.
